Experimental data reported in US20240243319A1, “AQUEOUS ELECTROLYTE, SALTS USED THEREIN, AND REDOX FLOW BATTERY USING SAID AQUEOUS ELECTROLYTE” (MITSUBISHI CHEMICAL CORPORATION, priority 2021, published 2024).

Assay: Dissolution test in 1 M chloride salt aqueous solutions
Format: physicochemical
Conditions: potassium chloride, lithium chloride and ammonium chloride aqueous solution, room temperature
[1] = 0.01 mmol added to 10 mL each of 1 M sodium chloride

Row | dissolution in aqueous salt solutions [1] | dissolution in aqueous salt solutions (0.05 mmol added to 10 mL each of 1 M sodium chloride) | Structure (SMILES)
1 | did not dissolve | – | O=C(O)c1ccc2c(c1)C(=O)c1c(O)ccc(O)c1C2=O [compound represented by formula (2a-1)]
2 | did not dissolve | – | O=C1c2ccccc2C(=O)c2c1cc(S(=O)(=O)[O-])c(O)c2O.[Na+] [Alizarin Red S, reference compound]
3 | – | did not dissolve | O=C(O)c1ccc2nc3cc(O)c(O)cc3nc2c1 [compound represented by formula (1a-1)]
